Values joined by “and” are separate entries in the source; they are usually repeats but may differ in a detail not shown here. Equal values may be shown once. “Also recorded” adds a separate entry of the source.
Legend:
[1] = test system: acetyl-CoA carboxylase (ACC); test: ACC expression, immunoblot in 3T3L1 preadipocytes; format: cell-based; conditions: 100 μM, 24 hours
[2] = test system: SIRT1; test: SIRT1 protein expression, immunoblot and densitometry in 3T3 L1 preadipocytes; format: cell-based; conditions: 24 hours; for SIRT1 protein expression compared to control: 3T3 L1 cells, 60 μM each compound; for SIRT1 protein expression vs control: 3T3L1 preadipocytes, 100 μM
Procedure: 3T3L1 cells were purchased from American Type Culture Collection (Manassas, Va., USA) and cultured in DMEM media containing 4.5 g/l glucose supplemented with 10% fetal bovine serum (Hyclone), 2 mM L-glutamine (Gibco), 100 U/ml penicillin, and 100 μg/ml streptomycin (Gibco). The cells were cultured at 37° C. in a humidified atmosphere with 10% CO2.
The 3T3L1 cells were plated at 6×10^4 cells/well in 12 well plates and incubated at 37° C. in a humidified atmosphere with 10% CO2. The media was removed after 24 hours and the cells were treated with 60 μM GR24 individually and in combination with […] and 60 μM pinosylvin, and incubated for 24 hours at 37° C. in a humidified atmosphere with 10% CO2. The media was removed, cells were washed with PBS, and cell lysates were collected on ice. Proteins were extracted using RIPA buffer along with protease and phosphatase inhibitors. Lysates were centrifuged for 30 min at high speed; supernatant was collected and stored at […] until further analysis. The vehicle controls were 3T3 L1 cells without any treatment with drugs or other compounds. The drugs or compounds that were used in all the experiments were dissolved or diluted in dimethylsulfoxide (DMSO) as diluent. In all experiments, the controls were treated with the same volume of DMSO as was used to dissolve drugs or compounds in compound-treated cells to show and ensure that the actual change in protein expression in different treatments was due solely to the compounds or combination of compounds and not to the DMSO.
(§1) Protein concentrations were measured using a BCA (bicinchoninic acid) protein assay kit (Cat.#23225; Pierce, Rockford, Ill.). Twenty (20) μg/lane of total cellular protein samples containing NuPAGE LDS sample buffer (Invitrogen) and reducing agent were loaded into 4-12% NuPAGE Bis-Tris gels (Invitrogen), subjected to gel electrophoresis, and transferred to polyvinylidene fluoride membranes (Amersham). For SIRT1 proteins, membranes were blocked in 0.05% TBS-Tween with 3% milk for 1 hour, incubated overnight at +4° C. with SIRT1 primary antibodies (Cat.#07-131, Millipore). For phospho-AMPKα and AMPKα proteins, blocking was done for 1 hour in 0.1% TBS-Tween with 5% milk. The membranes were incubated overnight at +4° C. with phospho-AMPKα (Cat. #2535, Cell Signaling) and AMPKα (Cat.#2532, Cell Signaling) primary antibodies. Horseradish peroxidase-conjugated anti-rabbit antibodies (Cat. #NA934V GE Health Care, Amersham, U.K) were used as secondary antibodies. For α-tubulin (loading control), membranes were blocked in 0.05% PBS-Tween with 3% milk for 1 hour, incubated with α-tubulin (Cat.# B-5-1-2, Sigma) primary antibodies for 1 hour at room temperature and horseradish peroxidase-conjugated anti-mouse (Cat. # NA 931V GE Health Care, Amersham, U.K.) IgG antibodies were used as secondary antibodies.
(§2) The membranes were developed using chemiluminescence (ECL plus, GE Health Care), and images were captured in an Image Quant RT-ECL machine (version 1.0.1; GE Health Care). Densitometry and quantification of the bands were done by applying Quantity One software (Bio-Rad). The expression levels of the proteins were normalized to α-tubulin protein levels.
3T3L1 cells were purchased from American Type Culture Collection (Manassas, Va., USA) and cultured in DMEM media containing 4.5 g/l glucose supplemented with 10% fetal bovine serum (Hyclone), 2 mM L-glutamine (Gibco) and 100 U/ml penicillin, 100 μg/ml streptomycin (Gibco). The cells were cultured at 37° C. in a humidified atmosphere with 10% CO2. 3T3L1 preadipocytes were plated at 1×10^5 cells/well in 6 well plates and incubated at 37° C. in a humidified atmosphere with 10% CO2. […] In all experiments, the controls were treated with the same volume of DMSO as was used to dissolve compounds in compound-treated cells to show and ensure that the actual change in protein expression in different treatments was only due to the compounds DMSO. […]

[3] = test system: PGC-1α; test: PGC-1α protein expression, immunoblot and densitometry in 3T3 L1 preadipocytes; format: cell-based; conditions: 60 μM, 24 hours, control = 100%
Procedure: 3T3L1 cells were purchased from American Type Culture Collection (Manassas, Va., USA) and cultured in DMEM media containing 4.5 g/l glucose supplemented with 10% fetal bovine serum (Hyclone), 2 mM L-glutamine (Gibco), 100 U/ml penicillin, and 100 μg/ml streptomycin (Gibco). The cells were cultured at 37° C. in a humidified atmosphere with 10% CO2. […]
as §1, §2
PGC-1α as an indicator of SIRT1 activity: PGC-1α has been extensively described as a master regulator of mitochondrial biogenesis. […] When SIRT1 protein expression is induced, it interacts with and deacetylates PGC-1α in an NAD-dependent manner. Thus SIRT1 acts as a modulator of PGC-1a (Rodgers J T et al, Nature 2005). The effects of resveratrol, a nonselective SIRT1 activator, were associated with an induction of genes for oxidative phosphorylation and mitochondrial biogenesis, and were largely explained by a resveratrol-mediated decrease in PGC-1α acetylation and an increase in PGC-1α activity (Lagouge M, Cell 2006). Therefore, PGC-1α protein expression serves as an indicator of SIRT1 activity.
3T3L1 cells were purchased from American Type Culture Collection (Manassas, Va., USA) and cultured in DMEM media containing 4.5 g/l glucose supplemented with 10% fetal bovine serum (Hyclone), 2 mM L-glutamine (Gibco) and 100 U/ml penicillin, 100 μg/ml streptomycin (Gibco). The cells were cultured at 37° C. in a humidified atmosphere with 10% CO2. 3T3L1 preadipocytes were plated at 1×10^5 cells/well in 6 well plates and incubated at 37° C. in a humidified atmosphere with 10% CO2. The media was removed after 24 hours and the cells were treated with 60 μM GR24 or with 60 μM 1A, 1B, 5A, 5B, 6A, or 7A and incubated for 24 hours at 37° C. in a humidified atmosphere with 10% CO2. In all experiments, the controls were treated with the same volume of DMSO as was used to dissolve compounds in compound-treated cells to show and ensure that the actual change in protein expression in different treatments was only due to the compounds […]. The media was removed, cells were washed with PBS and cell lysates were collected on ice. Proteins were extracted using RIPA buffer along with protease and phosphatase inhibitors. Lysates were centrifuged for 30 min at high speed; supernatant was collected and stored at −70° C. until further analysis.

[4] = test system: fungal cell; conditions: cited from earlier work
[5] = test system: phospho-ACC; test: phospho-ACC expression, immunoblot in 3T3 L1 preadipocytes; format: cell-based; conditions: 24 hours; for phosphorylated ACC expression vs control: 3T3L1 preadipocytes, 100 μM

CC1=CC(O/C=C2/C(=O)O[C@@H]3c4ccccc4C[C@H]23)OC1=O (some centres unmarked) [GR24]
ACC protein expression vs control [1]: down-regulated | SIRT1 protein expression compared to control [2]: significant increase; also recorded: significantly (*P<0.05) increased | SIRT1 protein expression compared to control ([2]; listed as GR 24): significant increase; also recorded: significantly (*P<0.05) increased | SIRT1 expression compared with resveratrol ([2]; 3T3 L1 preadipocytes, 60 μM): greater than did resveratrol | SIRT1 protein expression compared to control (100%) ([2]; 3T3 L1 preadipocytes, 60 μM, control = 100%): 168% and 164% and 198% and 220% and 149% | SIRT1 protein expression vs control [2]: significantly increased | SIRT1 protein expression vs control ([2]; listed as GR 24): increase | PGC-1α protein expression compared to control (100%) [3]: 168% and 164% and 198% and 220% and 149% | ATP content of the fungal cell [4]: rapid increase | NADH concentration [4]: rapid increase | NADH dehydrogenase activity [4]: rapid increase | phospho-ACC expression (phosphorylation of ACC) compared to control ([5]; 3T3 L1 preadipocytes, 60 μM): no change | phosphorylated ACC expression vs control [5]: down-regulated | phosphorylated ACC expression vs control ([5]; listed as GR 24): decrease
